Measurements taken from paper PMC10943645 (Current Research in Toxicology, 2024).
Values belong to the molecule of their own block, whether it stands above or below them.

Tests used:
[1] = system: DNA; assay: Identification of B; assay type: in vivo, PIRC rats; details: colon and liver tissues
[2] = system: SULT1A1; assay: Western blot of SULT1A1 protein in liver; assay type: in vivo, PIRC rats
[3] = system: SULT1A1; assay: Western blot of SULT1A1 protein in colon; assay type: in vivo, PIRC rats
[4] = system: GST; assay: Western blot of GST protein in colon; assay type: in vivo, PIRC rats; details: 25 µg B(a)P/kg bw + RD, among all the groups
[5] = system: GST; assay: Western blot of GST protein in liver; assay type: in vivo, PIRC rats
[6] = Tissue disposition of B; assay type: in vivo, PIRC rats; details: for proportion of reactive metabolite among B(a)P metabolite concentrations: colon sample, 50 µg B(a)P/kg bw (Fig. 5D)
[7] = system: Caco-2 cells; details: Western diet; ref Faria et al. (2020); cited from earlier work
[8] = system: malondialdehyde (MDA); assay: Lipid peroxidation; assay type: in vivo, PIRC rats; details: among the treatment groups, except in the case of 100 µg/kg
[9] = system: malondialdehyde (MDA); assay: Lipid peroxidation; assay type: in vivo, PIRC rats; details: B(a)P + WD

SMILES: Oc1ccc2ccc3c4ccccc4cc4ccc1c2c43 [3-OH-B(a)P]
- contribution of B(a)P metabolite to DNA adduct formation [1]: not found to contribute to adduct formation

SMILES: Oc1ccc2cc3ccc4cccc5ccc(c2c1)c3c45 [9-OH–B(a)P]
- contribution of B(a)P metabolite to DNA adduct formation [1]: not found to contribute to adduct formation

SMILES: c1ccc2c(c1)cc1ccc3cccc4ccc2c1c34 [B(a)P, Benzo(a)pyrene]
- SULT1A1 protein expression in liver, WD compared to RD ([2]; 25 µg B(a)P/kg bw + WD vs RD): increased expression
- SULT1A1 protein expression in liver, RD or WD ([2]; 50 and 100 µg B(a)P/kg bw + RD or WD): no difference
- SULT1A1 protein expression in colon ([3]; 25 µg B(a)P/kg bw + RD and WD): negligible
- SULT1A1 protein expression in colon ([3]; 50 µg B(a)P/kg bw, both diets): increased
- SULT1A1 protein expression in colon, WD compared to RD ([3]; 100 µg B(a)P/kg bw + WD vs RD counterpart): significantly increased
- GST protein expression in colon [4]: largest increase
- GST protein expression in liver, RD or WD ([5]; 100 µg B(a)P/kg bw, RD or WD): Very little difference
- GST protein expression in liver, WD compared to counterparts ([5]; 25 and 50 µg B(a)P/kg bw + WD): significant increase
- B(a)P metabolite concentrations versus dose ([6]; plasma, liver, colon, 25, 50, 100 µg B(a)P/kg bw): dose-dependent
- bioaccessibility of B(a)P with WD [7]: higher bioaccessibility
- oxidative stress (MDA) in serum [8]: no difference
- MDA production in colon [9]: increased

- proportion of reactive metabolite among B(a)P metabolite concentrations [6]: high
SMILES: O=C1C=Cc2ccc3c4c(ccc1c24)C(=O)c1ccccc1-3 [B(a)P-3,6-dione]
- contribution of B(a)P metabolite to DNA adduct formation [1]: not found to contribute to adduct formation

- proportion of reactive metabolite among B(a)P metabolite concentrations [6]: high
SMILES: O=c1c2ccc3cccc4c(=O)cc(c5ccccc15)-c2c34 [B(a)P-6,12-dione]
- contribution of B(a)P metabolite to DNA adduct formation [1]: not found to contribute to adduct formation

SMILES: O[C@@H]1[C@@H]2O[C@@H]2c2c(cc3ccc4cccc5ccc2c3c45)[C@H]1O [BPDE, 7β,8α-dihydroxy-9α,10α-epoxy-7,8,9,10-tetrahydrobenzo[a]pyrene]
- contribution of B(a)P metabolite to DNA adduct formation [1]: major adducts
